Results taken from patent US10456390B2, “Combinations comprising MABA compounds and corticosteroids” (ALMIRALL, S.A., priority 2013, dated 2019).

Tested on: IL-8 secretion induced by LPS in peripheral blood neutrophils
Experiment: Inhibition of IL-8 secretion induced by LPS in isolated peripheral blood neutrophils (ELISA)
Type: cell-based
Conditions: Homo sapiens, Neutrophil; for inhibition at 10 pM: single agent at 0.01 nM
Experimental: 5 Healthy subjects were included for leukocyte experiments. Pulmonary function tests (forced spirometry) and arterial blood gas measurements were performed during the days prior to sample.
Neutrophils were isolated from peripheral blood of healthy volunteers according to standard procedures established in the laboratory (Milara J et al., Respiration 2012; 83, 147-158).
Isolated neutrophils were incubated with different drugs (MABA compound, mometasone or fluticasone) or vehicle for 30 minutes before incubation with LPS (1 mcg/mL) (Lipopolysaccharide, a representative stimulus as inflammatory mediator) for 6 hours in standard cell culture conditions (37° C. and 5% CO2). Supernatant were collected to measure IL-8 (the inflammatory marker).
IL-8 (Interleukin-8) was determined by ELISA according to the standard procedure.
Data was presented as mean±SEM (see FIG. 1 and FIG. 2). Statistical analysis of results was carried out by analysis of variance (ANOVA) followed by Bonferroni test, by Student's t test, or by non-parametric tests as appropriate (GraphPad Software Inc, San Diego, Calif., USA). Significance was accepted when P<0.05.

[1] = 30 min pre-incubation, LPS 1 mcg/mL 6 h, neutrophils from healthy subjects (5 volunteers in triplicate), Table 1

Structure (SMILES)	inhibition at 10 pM [1]	inhibition at 10 pM (LPS-induced IL-8 secretion, neutrophils from healthy subjects, Table 2)	inhibition at 0.0001 µM (single agent at 0.1 nM, LPS-induced IL-8 secretion, neutrophils from healthy subjects, Table 2)
CN(CCCn1nnc2cc(CNC[C@H](O)c3ccc(O)c4[nH]c(=O)ccc34)ccc21)[C@H]1CC[C@H](OC(=O)C(O)(c2cccs2)c2cccs2)CC1 [Cpd 2, Trans-4-[{3-[5-({[(2R)-2-hydroxy-2-(8-hydroxy-2-oxo-1,2-dihydroquinolin-5-yl)ethyl]amino}methyl)-1H-1,2,3-benzotriazol-1-yl]propyl}(methyl)amino]cyclohexyl hydroxy(di-2-thienyl)acetate]	4.17%	4.17%	
C[C@@H]1C[C@H]2[C@@H]3C[C@H](F)C4=CC(=O)C=C[C@]4(C)[C@@]3(F)[C@@H](O)C[C@]2(C)[C@@]1(O)C(=O)SCF [Fluticasone, fluticasone]			10.2%
C[C@@H]1C[C@H]2[C@@H]3CCC4=CC(=O)C=C[C@]4(C)[C@@]3(Cl)[C@@H](O)C[C@]2(C)[C@@]1(O)C(=O)CCl [Mometasone, mometasone]	2.85%		
